This is an account of results in ChEMBL document CHEMBL5537197, “Discovery of Novel Coumarin-quinolinium Derivatives as Pan-KRAS Translation Inhibitors by Targeting 5'-UTR RNA G-Quadruplexes” (J Med Chem, 2024).

pIC50: −log10 of the molar value.

Type in all cases: functional, cell-based
The subject of one test is NCM460. As to the kind of experiment: Cytotoxicity against human NCM460 cells harboring wild-type KRAS assessed as cell growth inhibition incubated for 24 hrs by MTT assay. Particulars: NCM460, 24 h.
In a further test the test system is MIA PaCa-2. As to the kind of experiment: Cytotoxicity against human MIA PaCa-2 cells harboring KRAS G12C mutant assessed as cell growth inhibition incubated for 24 hrs by MTT assay. Particulars: MIA PaCa-2, 24 h. A general note: Tetrazolium assays rely on reduction of a dye to a coloured formazan, in cell work by metabolically active cells.
A further test relates to PANC-1. Description: Cytotoxicity against human PANC-1 cells harboring KRAS G12D mutant assessed as cell growth inhibition incubated for 24 hrs by MTT assay. Particulars: PANC-1, 24 h.
The nature of test [1]: Cytotoxicity against human PANC-1 cells […] assessed as cell growth inhibition incubated for 24 hrs by MTT assay. Particulars: PANC-1, 24 h.

In the case of `CCN(CC)c1ccc2cc(/C=C/c3cc(NCCCN4CCOCC4)c4cc(F)c(NCCCN5CCOCC5)cc4[n+]3C)c(=O)oc2c1`, the pIC50 (in general, −log10 of the IC50, conventionally taken in molar units) is less than 4.40 with NCM460, 5.34 in the test with MIA PaCa-2, 4.54 in the test with PANC-1 and less than 4.40 in test [1].
Take `CCN(CC)c1ccc2cc(/C=C/c3cc(NCCCN4CCCC4)c4cc(F)c(NCCCN5CCCC5)cc4[n+]3C)c(=O)oc2c1`: the pIC50 (in the test on NCM460; in the test on MIA PaCa-2; in the test on PANC-1; in test [1]) was less than 4.40 throughout.
`CCN(CC)c1ccc2cc(/C=C/c3ccc4cc(F)c(NCc5ccccc5C)cc4[n+]3C)c(=O)oc2c1`: the pIC50 in the test with NCM460 is 4.73; in the test on MIA PaCa-2 it was greater than 5.89; in the test on PANC-1, 5.23; in test [1], 5.34.
For `CCN(CC)c1ccc2cc(/C=C/c3ccc4cc(F)c(NCCCOC(C)C)cc4[n+]3C)c(=O)oc2c1`, in that order: 4.63, 5.82, 5.54 and 5.22.
For `CCN(CC)c1ccc2cc(/C=C/c3cc(N4CCN(C)CC4)c4cc(F)c(N5CCN(C)CC5)cc4[n+]3C)c(=O)oc2c1`, in that order: less than 4.40, 4.80, 4.58 and less than 4.40.
For `CCN(CC)c1ccc(Nc2cc3c(ccc(/C=C/c4cc5ccc(N(CC)CC)cc5oc4=O)[n+]3C)cc2F)cc1` the same measures were greater than 5.89, greater than 4.89, greater than 5.89 and greater than 5.89.
`CCN(CC)c1ccc2cc(/C=C/c3ccc4cc(F)c(N5CCN(Cc6cn(CCc7cccs7)nn6)CC5)cc4[n+]3C)c(=O)oc2c1`: the pIC50 is less than 4.40 in the test on NCM460, 5.17 in the test with MIA PaCa-2, 4.62 in the test on PANC-1 and less than 4.40 in test [1].
For the compound `CCN(CC)c1ccc2cc(/C=C/c3ccc4cc(F)c(NCCc5nc6ccccc6[nH]5)cc4[n+]3C)c(=O)oc2c1`, the pIC50 with NCM460 was less than 4.40; in the test with MIA PaCa-2, 5.40; with PANC-1, 4.72; in test [1], less than 4.40.
Consider `CCN(CC)c1ccc2cc(/C=C/c3ccc4cc(F)c(NCCOCCO)cc4[n+]3C)c(=O)oc2c1`, for which the pIC50 with NCM460 is less than 4.40; in the test on MIA PaCa-2, 5.01; in the test with PANC-1 it was less than 4.40; in test [1], less than 4.40.
Take `CCN(CC)c1ccc2cc(/C=C/c3ccc4cc(F)c(N5CCN(Cc6cn(CCCN7CCCCC7)nn6)CC5)cc4[n+]3C)c(=O)oc2c1`: the negative logarithm of the IC50 (pIC50) with NCM460 was less than 4.40; in the test on MIA PaCa-2, 4.57; in the test on PANC-1, less than 4.40; in test [1], less than 4.40.
Turning to `CCN(CC)c1ccc2cc(/C=C/c3ccc4cc(F)c(NCCO)cc4[n+]3C)c(=O)oc2c1`, the pIC50 in the test with NCM460 is less than 4.40; in the test on MIA PaCa-2 it was 5.14; in the test with PANC-1 it was 4.42; in test [1], less than 4.40.
As to `CCN(CC)c1ccc2cc(/C=C/c3ccc4cc(F)c(N5CCN(Cc6cn(CCCN7CCCC7)nn6)CC5)cc4[n+]3C)c(=O)oc2c1`, the pIC50 in the test with NCM460 was less than 4.40; in the test with MIA PaCa-2, less than 4.40; in the test with PANC-1, 4.70; in test [1], 4.89.
In the case of `CCN(CC)c1ccc2cc(/C=C/c3ccc4cc(F)c(Nc5ccc6nc(C)[nH]c6c5)cc4[n+]3C)c(=O)oc2c1`, the pIC50 was 4.83 in the test with NCM460, 4.92 in the test with MIA PaCa-2, 4.89 in the test with PANC-1 and less than 4.40 in test [1].
For `CCN(CC)c1ccc2cc(/C=C/c3cc(N4CCN(C)CC4)c4cc(F)c(NCc5cn(CCCN6CCOCC6)nn5)cc4[n+]3C)c(=O)oc2c1`, in that order: less than 4.40, less than 4.40, less than 4.40 and less than 4.40.
For `CCN(CC)c1ccc2cc(/C=C/c3ccc4cc(F)c(NCc5ccccc5C(F)(F)F)cc4[n+]3C)c(=O)oc2c1` the same measures were 4.91, greater than 5.89, 5.15 and 5.52.
As to `CCN(CC)CCCn1cc(CNc2cc3c(cc2F)c(N2CCN(C)CC2)cc(/C=C/c2cc4ccc(N(CC)CC)cc4oc2=O)[n+]3C)nn1`, the pIC50 (in the test with NCM460; in the test on MIA PaCa-2; with PANC-1; in test [1]) was less than 4.40 in each case.
For `CCN(CC)c1ccc2cc(/C=C/c3cc(N4CCN(C)CC4)c4cc(F)c(NCc5cn(CCC(=O)O)nn5)cc4[n+]3C)c(=O)oc2c1`, the pIC50 (with NCM460; in the test on MIA PaCa-2; in the test with PANC-1; in test [1]) was less than 4.40 each time.
On to `CCN(CC)c1ccc2cc(/C=C/c3ccc4cc(F)c(Nc5ccc(N6CCN(C)CC6)nc5)cc4[n+]3C)c(=O)oc2c1`, for which the pIC50 with NCM460 was 4.98; in the test on MIA PaCa-2 it was 5.05; in the test with PANC-1, less than 4.40; in test [1] it was less than 4.40.
As to `CCN(CC)c1ccc2cc(/C=C/c3ccc4cc(F)c(N5CCN(Cc6cn(CCC(=O)O)nn6)CC5)cc4[n+]3C)c(=O)oc2c1`, the pIC50 in the test on NCM460 is less than 4.40; with MIA PaCa-2, 4.90; in the test on PANC-1 it was less than 4.40; in test [1], less than 4.40.
As for `CCN(CC)c1ccc2cc(/C=C/c3cc(N4CCN(C)CC4)c4cc(F)c(NCc5cn(CCCN6CCCCC6)nn5)cc4[n+]3C)c(=O)oc2c1`, the pIC50 (with NCM460; in the test on MIA PaCa-2; in the test on PANC-1; in test [1]) was less than 4.40 each time.
For `CCN(CC)c1ccc2cc(/C=C/c3ccc4cc(F)c(NCCc5cccs5)cc4[n+]3C)c(=O)oc2c1`, the pIC50 in the test on NCM460 is 5.36; in the test on MIA PaCa-2 it was greater than 5.89; with PANC-1, greater than 5.89; in test [1] it was greater than 5.89.
`CCN(CC)c1ccc2cc(/C=C/c3ccc4cc(F)c(NCCCn5ccnc5)cc4[n+]3C)c(=O)oc2c1`: the pIC50 in the test on NCM460 was less than 4.40; in the test with MIA PaCa-2, 4.87; with PANC-1, less than 4.40; in test [1], less than 4.40.
With `CCN(CC)c1ccc2cc(/C=C/c3ccc4cc(F)c(NCC5CCOCC5)cc4[n+]3C)c(=O)oc2c1`, the pIC50 in the test with NCM460 is less than 4.40; in the test on MIA PaCa-2, 4.97; with PANC-1 it was 4.49; in test [1], 4.95.
For `CCN(CC)c1ccc2cc(/C=C/c3ccc4cc(F)c(N5CCN(Cc6cn(CCCN(C)C)nn6)CC5)cc4[n+]3C)c(=O)oc2c1` the same measures were less than 4.40, less than 4.40, less than 4.40 and less than 4.40.
For `CCN(CC)c1ccc2cc(/C=C/c3ccc4cc(F)c(N5CCN(Cc6cn(CCCN7CCOCC7)nn6)CC5)cc4[n+]3C)c(=O)oc2c1`, the pIC50 is less than 4.40 with NCM460, 4.63 in the test with MIA PaCa-2, less than 4.40 with PANC-1 and less than 4.40 in test [1].
Consider `CCN(CC)c1ccc2cc(/C=C/c3cc(N4CCN(C)CC4)c4cc(F)c(NCc5cn(CCC(=O)OC)nn5)cc4[n+]3C)c(=O)oc2c1`, for which the pIC50 (in the test on NCM460; with MIA PaCa-2; in the test with PANC-1; in test [1]) was less than 4.40 throughout.
As to `CCN(CC)c1ccc2cc(/C=C/c3ccc4cc(F)c(N5CCN(C(C)=O)CC5)cc4[n+]3C)c(=O)oc2c1`, the pIC50 in the test with NCM460 was less than 4.40; in the test with MIA PaCa-2, 5.25; in the test with PANC-1, 4.49; in test [1] it was less than 4.40.
As to `CCN1CCN(c2ccc(Nc3cc4c(ccc(/C=C/c5cc6ccc(N(CC)CC)cc6oc5=O)[n+]4C)cc3F)cc2)CC1`, the pIC50 was less than 4.40 with NCM460, 5.06 in the test with MIA PaCa-2, 4.82 in the test with PANC-1 and less than 4.40 in test [1].
On to `CCN(CC)c1ccc2cc(/C=C/c3ccc4cc(F)c(N5CCN(Cc6cn(CCCO)nn6)CC5)cc4[n+]3C)c(=O)oc2c1`, for which the pIC50 (in the test with NCM460; in the test with MIA PaCa-2; in the test with PANC-1; in test [1]) was less than 4.40 each time.
With `CCN(CC)c1ccc2cc(/C=C/c3ccc4cc(F)c(NCCN(C(C)C)C(C)C)cc4[n+]3C)c(=O)oc2c1`, the pIC50 with NCM460 was 4.82; in the test with MIA PaCa-2, 5.89; in the test with PANC-1 it was 5.47; in test [1] it was 4.89.
For `CCN(CC)c1ccc2cc(/C=C/c3ccc4cc(F)c(N5CCCCC5)cc4[n+]3C)c(=O)oc2c1`, in that order: less than 4.40, 4.94, 4.69 and less than 4.40.
Turning to `CCN(CC)c1ccc2cc(/C=C/c3cc(N4CCN(C)CC4)c4cc(F)c(NCc5cn(CCCN6CCCC6)nn5)cc4[n+]3C)c(=O)oc2c1`, the pIC50 (with NCM460; with MIA PaCa-2; with PANC-1; in test [1]) was less than 4.40 throughout.
On to `CCN(CC)c1ccc2cc(/C=C/c3ccc4cc(F)c(N5CCN(Cc6cn([C@@H]7O[C@H](CO)[C@@H](O)[C@H](O)[C@H]7O)nn6)CC5)cc4[n+]3C)c(=O)oc2c1`, for which the negative logarithm of the IC50 (pIC50) (in the test on NCM460; with MIA PaCa-2; in the test on PANC-1; in test [1]) was less than 4.40 each time.
With `CCN(CC)c1ccc2cc(/C=C/c3ccc4cc(F)c(N5CCOCC5)cc4[n+]3C)c(=O)oc2c1`, the pIC50 with NCM460 is less than 4.40; in the test on MIA PaCa-2, 4.53; in the test on PANC-1 it was 4.88; in test [1], less than 4.40.
`CCN(CC)c1ccc2cc(/C=C/c3cc(N4CCN(C)CC4)c4cc(F)c(NCc5cn(CCCN(C)C)nn5)cc4[n+]3C)c(=O)oc2c1`: the pIC50 in the test with NCM460 was less than 4.40; in the test on MIA PaCa-2, less than 4.40; in the test on PANC-1, 4.45; in test [1], less than 4.40.
For the compound `CCN(CC)c1ccc2cc(/C=C/c3ccc4cc(F)c(N5CCN(C(=O)C(C)C)CC5)cc4[n+]3C)c(=O)oc2c1`, the pIC50 was less than 4.40 in the test with NCM460, 5.47 in the test with MIA PaCa-2, 4.40 in the test on PANC-1 and less than 4.40 in test [1].
In the case of `CCN(CC)c1ccc2cc(/C=C/c3cc(N4CCN(C)CC4)c4cc(F)c(NCc5cn(CCc6cccs6)nn5)cc4[n+]3C)c(=O)oc2c1`, the pIC50 in the test on NCM460 was less than 4.40; with MIA PaCa-2, 5.05; with PANC-1, 4.72; in test [1], less than 4.40.
